The record followed here is US8158088B2, “Extractant compositions for co-extracting cesium and strontium, a method of separating cesium and strontium from an aqueous feed, and calixarene compounds” (Battelle Energy Alliance, LLC, priority 2008, dated 2012).

A short description of data set [1]: Solvent stability: strontium distribution ratios as a function of contact time with 1.5 M HNO3. In kind it is physicochemical. The procedure: (§1) The stability of the mixed extractant solvents prepared using dialkyloxycalix[4]arenebenzocrown-6 compounds (MC-8, MC-8B, MC-10, MC-10B, MC-12, or MC-12B) relative to BOBCalixC6 in the FPEX I process solvent was determined. Samples were prepared using each of the dialkyloxycalix[4]arenebenzocrown-6 compounds and contacted with 1.5 M HNO3. The samples included 0.007 M of the respective dialkyloxycalix[4]arenebenzo-crown-6 compound (MC-8, MC-8B, MC-10, MC-10B, MC-12, or MC-12B), 0.075 M DtBuCH18C6, 0.75 M Cs-7SB modifier, and 0.003 M TOA in ISOPAR® L. The stability of the dialkyloxycalix[4]arene-benzocrown-6 based solvents was evaluated by measuring the cesium and strontium distribution ratios as a function of contact time. These cesium and strontium distribution ratios for the mixed extractant solvents are presented in Table 9 and Table 10, respectively, along with the cesium and strontium distribution ratios for the FPEX I process solvent. The symbol “-” is used in Tables 9 and 10 to indicate no data was collected.
(§2) This degradation is likely due to chemical attack or nitration of the BOBCalixC6 in the FPEX I process solvent. […] However, it is difficult to compare the relative extents of degradation. In order to compare the different extractants, the distribution ratio data presented in Tables 9 and 10 were normalized to the values obtained at t=0 days contact. The normalized cesium and strontium distribution ratios for the FPEX I process solvent and the mixed extractant solvents as a function of contact time are presented in FIGS. 2 and 3, respectively.

Data set [2] can be described thus: Solvent stability: cesium distribution ratios as a function of contact time with 1.5 M HNO3. The class given is physicochemical. The procedure: as §1, §2
Setting [3] is: contact time 0 days with 1.5 M HNO3, 0.007 M calixarene, 0.075 M DtBuCH18C6, 0.75 M Cs-7SB, 0.003 M TOA in ISOPAR L.
The mark [4] stands for this setting: contact time 34 days with 1.5 M HNO3.
The mark [5] stands for this setting: contact time 70 days with 1.5 M HNO3.
The mark [6] stands for this setting: contact time 278 days with 1.5 M HNO3.

Regarding `CCCCCCCCOc1c2cccc1Cc1cccc3c1OCCOCCOc1ccccc1OCCOCCOc1c(cccc1Cc1cccc(c1OCCCCCCCC)C3)C2` [MC-8, 1,3-alternate-25,27-di(octyloxy)calix[4]arenebenzocrown-6], the “Strontium distribution ratio as a function of contact time” value in data set [1] (setting [3]) was 10.5; in data set [1] (setting [4]), 7.7; in data set [1] (setting [5]), 9.3; in data set [1] (setting [6]) it was 8.0. Further, the “Cesium distribution ratio as a function of contact time” value is given as 4.2 in data set [2] (setting [3]), 3.2 in data set [2] (setting [4]), 3.6 in data set [2] (setting [5]) and 2.8 in data set [2] (setting [6]).
